For this assay, the system named is L1210 leukemia ip in BDF1 mice, survival T/C. Briefly: NCI In Vivo Anticancer Drug Screen. Data for tumor model L1210 Leukemia (intraperitoneal) in B6D2F1 (BDF1) mice. The note with it: endpoint: mean survival time, higher = longer survival. In short, it runs like this:
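Survival endpoint. Drug-treated group vs vehicle group, expressed as T divided by C. Tumor passaged by transplantation.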

Setting [1] is: dose: 50.0 mg/kg/injection, schedule: Q01DX001 (ip), vehicle: saline.
Where [2] appears, read: dose: 100.0 mg/kg/injection, schedule: Q01DX001 (ip), vehicle: saline.
Where [3] appears, read: dose: 100.0 mg/kg/injection, schedule: Q01DX009 (ip), vehicle: Klucel (hydroxypropylcellulose) (HPC).
Where [4] appears, read: dose: 100.0 mg/kg/injection, schedule: Q04DX003 (ip), vehicle: Klucel (hydroxypropylcellulose) (HPC).
Where [5] appears, read: dose: 200.0 mg/kg/injection, schedule: Q01DX001 (ip), vehicle: saline.
The mark [6] stands for this setting: dose: 200.0 mg/kg/injection, schedule: Q01DX009 (ip), vehicle: Klucel (hydroxypropylcellulose) (HPC).
Where [7] appears, read: dose: 200.0 mg/kg/injection, schedule: Q04DX003 (ip), vehicle: Klucel (hydroxypropylcellulose) (HPC).
The mark [8] stands for this setting: dose: 400.0 mg/kg/injection, schedule: Q01DX001 (ip), vehicle: saline.
Where [9] appears, read: dose: 400.0 mg/kg/injection, schedule: Q01DX009 (ip), vehicle: Klucel (hydroxypropylcellulose) (HPC).
Setting [10] is: dose: 400.0 mg/kg/injection, schedule: Q04DX003 (ip), vehicle: Klucel (hydroxypropylcellulose) (HPC).
The mark [11] stands for this setting: dose: 100.0 mg/kg/injection, schedule: Q04DX003 (ip), vehicle: saline.
[12] abbreviates: dose: 200.0 mg/kg/injection, schedule: Q04DX003 (ip), vehicle: saline.
[13] abbreviates: dose: 75.0 mg/kg/injection, schedule: Q01DX001 (ip), vehicle: carboxymethylcellulose (CMC).

Molecules are shown by their SMILES. “And” between values parts separate entries of the source, which are not always exact repeats. Equal entries are not always repeated. Inconclusive results and toxic doses are left out.

On to `O=S(Cc1ccccc1)Cc1ccccc1`, for which the T/C by setting is: under setting [1], 110 % of control; under setting [2], 110 % of control; under setting [3], 103 % of control; under setting [4], 90 % of control; under setting [5], 103 % of control; under setting [6], 100 % of control. Also, the T/C is, setting by setting: under setting [7], 97 % of control; under setting [8], 100 % of control; under setting [9], 102 % of control; under setting [10], 100 % of control.

Turning to `N#Cc1cnc2nc(N)nc(N)c2c1`, the T/C is 95 % of control and 105 % of control (dose: 50.0 mg/kg/injection, schedule: Q01DX009 (ip), vehicle: saline); 95 % of control and 91 % of control (dose: 100.0 mg/kg/injection, schedule: Q01DX009 (ip), vehicle: saline); 95 % of control under setting [11]; 95 % of control and 98 % of control and 90 % of control (dose: 200.0 mg/kg/injection, schedule: Q01DX009 (ip), vehicle: saline); 106 % of control under setting [12].

With `COc1ccc([P+](Cc2ccccc2)(c2ccccc2)c2ccc3ccccc3c2)cc1` (centres undefined), the T/C by setting is: under setting [13], 91 % of control; (dose: 150.0 mg/kg/injection, schedule: Q01DX001 (ip), vehicle: carboxymethylcellulose (CMC)) 96 % of control.

In the case of `CN(C)C(=O)SSC(=S)N(C)C`, the T/C by setting is: (dose: 4.0 mg/kg/injection, schedule: Q01DX015 (ip), vehicle: carboxymethylcellulose (CMC)) 93 % of control; (dose: 8.0 mg/kg/injection, schedule: Q01DX015 (ip), vehicle: carboxymethylcellulose (CMC)) 92 % of control; (dose: 16.0 mg/kg/injection, schedule: Q01DX015 (ip), vehicle: carboxymethylcellulose (CMC)) 106 % of control; (dose: 32.0 mg/kg/injection, schedule: Q01DX015 (ip), vehicle: carboxymethylcellulose (CMC)) 97 % of control and 98 % of control; (dose: 64.0 mg/kg/injection, schedule: Q01DX015 (ip), vehicle: carboxymethylcellulose (CMC)) 98 % of control; (dose: 128.0 mg/kg/injection, schedule: Q01DX015 (ip), vehicle: carboxymethylcellulose (CMC)) 96 % of control.

On to `C(#CSCc1ccccc1)SCc1ccccc1`, for which the T/C by setting is: under setting [3], 94 % of control; under setting [4], 104 % of control; under setting [6], 96 % of control; under setting [7], 102 % of control; under setting [9], 97 % of control; under setting [10], 104 % of control.

`CC(C)Sc1ncnc2nc[nH]c12`: the T/C by setting is: (dose: 2.5 mg/kg/injection, schedule: Q01DX009 (sc), vehicle: steriod suspending solution) 97 % of control; (dose: 5.0 mg/kg/injection, schedule: Q01DX009 (sc), vehicle: steriod suspending solution) 100 % of control; (dose: 10.0 mg/kg/injection, schedule: Q01DX009 (sc), vehicle: steriod suspending solution) 96 % of control; (dose: 18.0 mg/kg/injection, schedule: Q01DX009 (ip), vehicle: saline with Tween-80) 102 % of control; (dose: 27.0 mg/kg/injection, schedule: Q01DX009 (ip), vehicle: saline with Tween-80) 104 % of control; (dose: 40.0 mg/kg/injection, schedule: Q01DX009 (ip), vehicle: saline with Tween-80) 110 % of control. Besides, the T/C is 109 % of control (dose: 60.0 mg/kg/injection, schedule: Q01DX009 (ip), vehicle: saline with Tween-80); 103 % of control (dose: 75.0 mg/kg/injection, schedule: Q01DX001 (sc), vehicle: steriod suspending solution); 166 % of control (dose: 75.0 mg/kg/injection, schedule: Q01DX009 (sc), vehicle: steriod suspending solution); 160 % of control (dose: 150.0 mg/kg/injection, schedule: Q01DX009 (sc), vehicle: steriod suspending solution).

Consider `CSc1ccc(NC(=O)Nc2c(C)n(C)n(-c3ccccc3)c2=O)cc1`, for which the T/C under setting [2] is 89 % of control; the T/C (dose: 100.0 mg/kg/injection, schedule: Q01DX009 (ip), vehicle: saline with Tween-80) is 89 % of control; the T/C under setting [11] was 94 % of control; the T/C under setting [5] was 89 % of control; the T/C (dose: 200.0 mg/kg/injection, schedule: Q01DX009 (ip), vehicle: saline with Tween-80) was 89 % of control; the T/C under setting [12] was 94 % of control. Moreover, the T/C under setting [8] is 94 % of control; the T/C (dose: 400.0 mg/kg/injection, schedule: Q01DX009 (ip), vehicle: saline with Tween-80) is 86 % of control; the T/C (dose: 400.0 mg/kg/injection, schedule: Q04DX003 (ip), vehicle: saline) was 87 % of control.

On to `COCCOC(=O)c1ccc(C(N)=NC2CCCCC2)cc1`, for which the T/C is 96 % of control under setting [2] and 97 % of control under setting [5].

On to `COc1ccc2nc3cc(Cl)ccc3c(Nc3ccc(O)c(CNCCO)c3)c2c1`, for which, under setting [13], the T/C is 101 % of control.

In the case of `C#CC(N)=O`, the T/C (dose: 3.0 mg/kg/injection, schedule: Q01DX009 (ip), vehicle: saline) was 100 % of control; the T/C (dose: 6.0 mg/kg/injection, schedule: Q01DX009 (ip), vehicle: saline) was 96 % of control; the T/C (dose: 12.0 mg/kg/injection, schedule: Q01DX009 (ip), vehicle: saline) was 94 % of control; the T/C (dose: 25.0 mg/kg/injection, schedule: Q04DX003 (ip), vehicle: saline) is 107 % of control; the T/C (dose: 50.0 mg/kg/injection, schedule: Q04DX003 (ip), vehicle: saline) was 106 % of control; the T/C (dose: 75.0 mg/kg/injection, schedule: Q01DX001 (ip), vehicle: saline) is 107 % of control.

`COC1C(OC(C)=O)CC(=O)OC(C)C/C=C/C=C\C(O)C(C)CC(CC=O)C1OC1OC(C)C(OC2CC(C)(O)C(OC(=O)CC(C)C)C(C)O2)C(N(C)C)C1O` (centres undefined): the T/C by setting is: under setting [2], 96 % of control; under setting [8], 90 % of control.

With `CC(C)=CCCC(C)CCOc1cccc(C)c1` (centres undefined), the T/C (dose: 100.0 mg/kg/injection, schedule: Q04DX002 (ip), vehicle: saline with Tween-80) was 105 % of control; the T/C (dose: 200.0 mg/kg/injection, schedule: Q04DX002 (ip), vehicle: saline with Tween-80) is 99 % of control; the T/C (dose: 400.0 mg/kg/injection, schedule: Q04DX002 (ip), vehicle: saline with Tween-80) is 89 % of control.

Take `C=CCOCC(O)CN(CCCC)CCCC` (centres undefined): the T/C runs as follows: (dose: 25.0 mg/kg/injection, schedule: Q01DX009 (ip), vehicle: saline with Tween-80) 95 % of control; (dose: 50.0 mg/kg/injection, schedule: Q01DX009 (ip), vehicle: saline with Tween-80) 97 % of control.

Take `c1ccc(C2=NCCN=C2c2ccccc2)cc1`: the T/C was 97 % of control under setting [4], 97 % of control under setting [7] and 93 % of control under setting [10].

`COc1ccccc1NC(=O)OCc1ccco1`: the T/C (dose: 100.0 mg/kg/injection, schedule: Q01DX009 (ip), vehicle: other) was 106 % of control; the T/C (dose: 200.0 mg/kg/injection, schedule: Q01DX009 (ip), vehicle: other) was 101 % of control; the T/C (dose: 400.0 mg/kg/injection, schedule: Q01DX009 (ip), vehicle: other) is 104 % of control.

`CC(C)(C)c1ccc(C(=O)O)cc1.[Cu+2]`: the T/C was 109 % of control (dose: 2.5 mg/kg/injection, schedule: Q01DX009 (ip), vehicle: Klucel (hydroxypropylcellulose) (HPC)); 101 % of control (dose: 5.0 mg/kg/injection, schedule: Q01DX009 (ip), vehicle: Klucel (hydroxypropylcellulose) (HPC)); 106 % of control (dose: 10.0 mg/kg/injection, schedule: Q01DX009 (ip), vehicle: Klucel (hydroxypropylcellulose) (HPC)); 101 % of control (dose: 20.0 mg/kg/injection, schedule: Q01DX009 (ip), vehicle: Klucel (hydroxypropylcellulose) (HPC)).

Regarding `C=C(C)Cc1c(C)c(Cl)cc(Cl)c1O`, the T/C is, setting by setting: under setting [1], 103 % of control; under setting [2], 103 % of control.

For the compound `CCOC(=O)CNc1ccc(C)c(C)c1`, the T/C runs as follows: (dose: 100.0 mg/kg/injection, schedule: Q04DX002 (ip), vehicle: Klucel (hydroxypropylcellulose) (HPC)) 95 % of control; (dose: 200.0 mg/kg/injection, schedule: Q04DX002 (ip), vehicle: Klucel (hydroxypropylcellulose) (HPC)) 109 % of control; (dose: 400.0 mg/kg/injection, schedule: Q04DX002 (ip), vehicle: Klucel (hydroxypropylcellulose) (HPC)) 104 % of control.

Source of the values: PubChem BioAssay AID248 (DTP/NCI, 2004).
